29 compounds from patent US9981916B2 (Genentech, Inc., priority 2013, dated 2018) can be followed below.

The target of this assay is T1, RORc ligand binding domain (Homo sapiens, UniProt P51449).
T1 construct: host or cells: E. coli
T1 sequence (P51449 269-508 limits assumed): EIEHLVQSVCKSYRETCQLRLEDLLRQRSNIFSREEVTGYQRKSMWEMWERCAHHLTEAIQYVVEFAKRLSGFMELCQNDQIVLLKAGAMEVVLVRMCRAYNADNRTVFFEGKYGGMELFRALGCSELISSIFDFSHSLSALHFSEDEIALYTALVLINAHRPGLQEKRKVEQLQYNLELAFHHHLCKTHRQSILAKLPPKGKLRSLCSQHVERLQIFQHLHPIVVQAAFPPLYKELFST
Nature of the assay: In vitro RORc ligand binding assay (25-[3H]hydroxycholesterol displacement, filter binding). The conditions noted are these: 6 nM 25-[3H]hydroxycholesterol, 0.6 ug/mL RORc receptor, 3 h at 25° C. Summed up:
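Compounds in 5% DMSO, either dose-response or screened at 1 and 10 uM, competed with 6 nM 25-[3H]hydroxycholesterol for 0.6 ug/mL RORc over 3 h at 25° C (HEPES pH 7.4, NaCl, MgCl2, DTT, BSA buffer). Bound tracer was filter-harvested and counted; nonspecific binding came from 1 uM 25-hydroxycholesterol.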

The term IC50 denotes the midpoint of a concentration-inhibition curve. A high value points to weaker potency in that assay.

Turning to `CC1(C)[C@@H]2CC[C@@]1(CNCC(F)F)c1nnc(-c3c(F)cccc3F)cc12` [Example 328, N-(((5S,8R)-3-(2,6-difluorophenyl)-9,9-dimethyl-5,6,7,8-tetrahydro-5,8-methanocinnolin-8-yl)methyl)-2,2-difluoroethanamine], the IC50 is 74 nM. In the case of `CON(C)C(=O)[C@]12CC[C@H](c3cc(-c4c(F)cccc4F)nnc31)C2(C)C` [Example 55, (5S,8S)-3-(2,6-difluorophenyl)-N-methoxy-N,9,9-trimethyl-6,7-dihydro-5,8-methanocinnoline-8(5H)-carboxamide], the IC50 was 124 nM.

`CCc1nnc([C@@]23CC[C@@H](c4cc(-c5c(F)cccc5F)nnc42)C3(C)C)o1` [Example 122, (5R,8R)-3-(2,6-difluorophenyl)-9,9-dimethyl-8-(5-ethyl-1,3,4-oxadiazol-2-yl)-5,6,7,8-tetrahydro-5,8-methanocinnoline]: the IC50 worked out at 17 nM. In the case of `CC1(C)[C@H]2CC[C@]1(c1ncco1)c1nnc(-c3c(F)cccc3F)cc12` [Example 102, (5R,8R)-3-(2,6-difluorophenyl)-9,9-dimethyl-8-(1,3-oxazol-2-yl)-5,6,7,8-tetrahydro-5,8-methanocinnoline] it was 17 nM.

In the case of `CC1(C)[C@H]2CC[C@]1(C(=O)N1CC(F)(F)C1)c1nnc(-c3ccccc3F)cc12` [Example 172, (3,3-difluoroazetidin-1-yl)((5R,8R)-3-(2-fluorophenyl)-9,9-dimethyl-5,6,7,8-tetrahydro-5,8-methanocinnolin-8-yl)methanone], the IC50 is 1410 nM. Compound `CC1(C)[C@H]2CC[C@]1(C(=O)NCCO)c1nnc(-c3ccccc3F)cc12` [Example 176, (5R,8R)-3-(2-fluorophenyl)-N-(2-hydroxyethyl)-9,9-dimethyl-5,6,7,8-tetrahydro-5,8-methanocinnoline-8-carboxamide] registered an IC50 of 2670 nM. In the case of `CN(C(=O)OC(C)(C)C)[C@]12CC[C@H](c3cc(-c4c(F)cccc4F)nnc31)C2(C)C` [Example 280, tert-butyl ((5S,8S)-3-(2,6-difluorophenyl)-9,9-dimethyl-5,6,7,8-tetrahydro-5,8-methanocinnolin-8-yl)(methyl)carbamate] it was 2240 nM.

With `CN(C)C1CN(C(=O)[C@]23CC[C@H](c4cc(-c5c(F)cccc5F)nnc42)C3(C)C)C1` [Example 79, [(5S,8S)-3-(2,6-difluorophenyl)-9,9-dimethyl-6,7-dihydro-5,8-methanocinnolin-8(5H)-yl][3-(dimethylamino)azetidin-1-yl]methanone], the IC50 worked out at 1120 nM. In the case of `CC1(C)[C@@H]2CC[C@@]1(C(=O)N1CC(F)(F)C1)c1nnc(-c3ccccc3F)cc12` [Example 332, (3,3-difluoroazetidin-1-yl)((5S,8S)-3-(2-fluorophenyl)-9,9-dimethyl-5,6,7,8-tetrahydro-5,8-methanocinnolin-8-yl)methanone], the IC50 stood at 1400 nM. In the case of `Cc1nnc(N(CCN(C)C)C[C@@]23CC[C@@H](c4cc(-c5c(F)cccc5F)nnc42)C3(C)C)o1` [Example 260, N1-(((5R,8S)-3-(2,6-difluorophenyl)-9,9-dimethyl-5,6,7,8-tetrahydro-5,8-methanocinnolin-8-yl)methyl)-N2,N2-dimethyl-N1-(5-methyl-1,3,4-oxadiazol-2-yl)ethane-1,2-diamine] it was 3410 nM. In the case of `Cn1ccc([C@@]23CC[C@@H](c4cc(-c5c(F)cccc5F)nnc42)C3(C)C)n1` [Example 186] it was 152 nM; in that of `CC1(C)[C@H]2CC[C@]1(CNCC(F)F)c1nnc(-c3c(F)cccc3F)cc12` [Example 291, N-(((5R,8S)-3-(2,6-difluorophenyl)-9,9-dimethyl-5,6,7,8-tetrahydro-5,8-methanocinnolin-8-yl)methyl)-2,2-difluoroethanamine], 149 nM; in that of `CC1(C)[C@H]2CC[C@]1(CN(CCO)C(N)=O)c1nnc(-c3c(F)cccc3F)cc12` [Example 283, 1-(((5R,8S)-3-(2,6-difluorophenyl)-9,9-dimethyl-5,6,7,8-tetrahydro-5,8-methanocinnolin-8-yl)methyl)-1-(2-hydroxyethyl)urea], 226 nM. In the case of `CCNC(=O)[C@]12CC[C@H](c3cc(-c4ccccc4F)nnc31)C2(C)C` [Example 134, (5S,8S)-N-ethyl-3-(2-fluorophenyl)-9,9-dimethyl-5,6,7,8-tetrahydro-5,8-methanocinnoline-8-carboxamide] it was 211 nM; in that of `CN(CCC#N)C(=O)[C@]12CC[C@H](c3cc(-c4c(F)cccc4F)nnc31)C2(C)C` [Example 258, (5S,8S)-N-(2-cyanoethyl)-3-(2,6-difluorophenyl)-N,9,9-trimethyl-5,6,7,8-tetrahydro-5,8-methanocinnoline-8-carboxamide], 1130 nM.

As to `Cc1ncc([C@@]23CC[C@@H](c4cc(-c5c(F)cccc5F)nnc42)C3(C)C)o1` [Example 117, (5R,8R)-3-(2,6-difluorophenyl)-9,9-dimethyl-8-(2-methyl-1,3-oxazol-5-yl)-5,6,7,8-tetrahydro-5,8-methanocinnoline], the IC50 turned out to be 19 nM.

Turning to `CC1(C)CN(C(=O)[C@@]23CC[C@@H](c4cc(-c5c(F)cccc5F)nnc42)C3(C)C)C1` [Example 142, ((5R,8R)-3-(2,6-difluorophenyl)-9,9-dimethyl-5,6,7,8-tetrahydro-5,8-methanocinnolin-8-yl)(3,3-dimethylazetidin-1-yl)methanone], the half-inhibitory concentration (IC50) was 1420 nM. `CC1(C)[C@@H]2CC[C@@]1(C(=O)N1CC3(CCC3)C1)c1nnc(-c3c(F)cccc3F)cc12` [Example 240, ((5S,8S)-3-(2,6-difluorophenyl)-9,9-dimethyl-5,6,7,8-tetrahydro-5,8-methanocinnolin-8-yl)(2-azaspiro[3.3]heptan-2-yl)methanone]: the IC50 was found to be 217 nM. Turning to `COCC1CN(C(=O)[C@]23CC[C@H](c4cc(-c5c(F)cccc5F)nnc42)C3(C)C)C1` [Example 140, ((5S,8S)-3-(2,6-difluorophenyl)-9,9-dimethyl-5,6,7,8-tetrahydro-5,8-methanocinnolin-8-yl)(3-(methoxymethyl)azetidin-1-yl)methanone], the IC50 came to 19 nM. In the case of `CCN(C[C@]12CC[C@H](c3cc(-c4c(F)cccc4F)nnc31)C2(C)C)C(=O)CCC(=O)N(C)C` [Example 344, N1-(((5S,8R)-3-(2,6-difluorophenyl)-9,9-dimethyl-5,6,7,8-tetrahydro-5,8-methanocinnolin-8-yl)methyl)-N1-ethyl-N4,N4-dimethylsuccinamide] it was 31 nM; in that of `CC1(C)[C@@H]2CC[C@@]1(Cn1cccn1)c1nnc(-c3ccccc3F)cc12` [Example 27, (5S,8R)-3-(2-fluorophenyl)-9,9-dimethyl-8-(1H-pyrazol-1-ylmethyl)-5,6,7,8-tetrahydro-5,8-methanocinnoline], 366 nM; in that of `CC1(C)[C@@H]2CC[C@@]1(c1nnc(CO)o1)c1nnc(-c3c(F)cccc3F)cc12` [Example 111, {5-[(5S,8S)-3-(2,6-difluorophenyl)-9,9-dimethyl-6,7-dihydro-5,8-methanocinnolin-8(5H)-yl]-1,3,4-oxadiazol-2-yl}methanol], 195 nM. In the case of `CC1(C)[C@@H]2CC[C@@]1(C(=O)NC1CCC1)c1nnc(-c3ccccc3F)cc12` [Example 333, (5S,8S)-N-cyclobutyl-3-(2-fluorophenyl)-9,9-dimethyl-5,6,7,8-tetrahydro-5,8-methanocinnoline-8-carboxamide] it was 1500 nM. In the case of `Cc1nnc([C@]23CC[C@H](c4cc(-c5c(F)cccc5F)nnc42)C3(C)C)o1` [Example 103, (5S,8S)-3-(2,6-difluorophenyl)-9,9-dimethyl-8-(5-methyl-1,3,4-oxadiazol-2-yl)-5,6,7,8-tetrahydro-5,8-methanocinnoline] it was 205 nM; in that of `CC1(C)[C@@H]2CC[C@@]1(COCc1ccccc1)c1nnc(-c3c(F)cccc3Cl)cc12` [Example 21, (5S,8S)-8-[(benzyloxy)methyl]-3-(2-chloro-6-fluorohenyl)-9,9-dimethyl-5,6,7,8-tetrahydro-5,8-methanocinnoline], 22 nM; in that of `CC1(C)[C@@H]2CC[C@@]1(C(=O)N1CC(n3cccn3)C1)c1nnc(-c3c(F)cccc3F)cc12` [Example 232, (3-(1H-pyrazol-1-yl)azetidin-1-yl)((5S,8S)-3-(2,6-difluorophenyl)-9,9-dimethyl-5,6,7,8-tetrahydro-5,8-methanocinnolin-8-yl)methanone], 232 nM.

In the case of `C[C@H]1COC(=O)N1C[C@@]12CC[C@@H](c3cc(-c4c(F)cccc4F)nnc31)C2(C)C` [Example 295, (S)-3-(((5R,8S)-3-(2,6-difluorophenyl)-9,9-dimethyl-5,6,7,8-tetrahydro-5,8-methanocinnolin-8-yl)methyl)-4-methyloxazolidin-2-one], the IC50 amounted to 1110 nM.

In turn, `CC(=O)OCCN(C[C@@]12CC[C@@H](c3cc(-c4c(F)cccc4F)nnc31)C2(C)C)C(C)=O` [Example 290, 2-(N-(((5R,8S)-3-(2,6-difluorophenyl)-9,9-dimethyl-5,6,7,8-tetrahydro-5,8-methanocinnolin-8-yl)methyl)acetamido)ethyl acetate] showed an IC50 of 121 nM.

As to `CC1(C)[C@H]2CC[C@]1(CN(CC(F)F)C(=O)CO)c1nnc(-c3c(F)cccc3F)cc12` [Example 308, N-(2,2-difluoroethyl)-N-(((5R,8S)-3-(2,6-difluorophenyl)-9,9-dimethyl-5,6,7,8-tetrahydro-5,8-methanocinnolin-8-yl)methyl)-2-hydroxyacetamide], the IC50 amounted to 22 nM.
